Laboratory results published in patent US7638496B2 (priority 2000, dated 2009).

Assays:
IMP dehydrogenease = conditions: cited from earlier work
PTV (Adames strain) = experiment: PTV infection in C57BL/6 mice in vivo; conditions: 24 h post infection by PTV
Experimental: For 24 h post infection by PTV in vivo the minimum effective s.c. dose of 32 mg/kg for ribavirin and for viramidine was 96 mg/kg given s.c. b.i.d for 5 days. For 24 h post infection by PTV in vivo the minimum effective p.o. dose of 20 mg/kg for ribavirin and for viramidine was 40 mg/kg given p.o. b.i.d for 5 days.

NC(=O)c1ncn([C@@H]2O[C@H](CO)[C@@H](O)[C@H]2O)n1 [Ribavirin, 1-β-D-ribofuranosyl-1,2,4-triazole-3-carboxamide]
IMP dehydrogenase inhibition (IMP dehydrogenease): inhibitor of IMP dehydrogenease
minimum effective p.o. dose (PTV (Adames strain); p.o. b.i.d for 5 days): 20 mg/kg
minimum effective s.c. dose (PTV (Adames strain); s.c. b.i.d for 5 days): 32 mg/kg
